Here are results for one compound from publication PMC3253143 (Nature, 2011).

This assay addresses EmrE (Escherichia coli, UniProt P23895). The experiment in a line: biochemical.

Chain of EmrE (P23895 whole entry): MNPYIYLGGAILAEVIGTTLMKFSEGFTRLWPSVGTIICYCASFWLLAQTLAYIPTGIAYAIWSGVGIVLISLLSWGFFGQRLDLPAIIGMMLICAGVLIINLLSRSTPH

By Kd is commonly meant a measure of binding affinity in units of concentration. A lower Kd goes with a tighter complex. For `c1ccc([P+](c2ccccc2)(c2ccccc2)c2ccccc2)cc1` [TPP^+], binding was characterised by a dissociation constant (Kd) of 120 ± 12 nM.
